Measured values published in patent US20240376076A1, “INHIBITORS TARGETING UBIQUITIN SPECIFIC PROTEASE 7 (USP7)” (Dana-Farber Cancer Institute, Inc., priority 2021, published 2024).

Legend:
[1] = target: T1, USP7, Active human recombinant protein (Homo sapiens, UniProt Q93009); test: USP7 assay (Ubiquitin-Rhodamine 110 enzymatic assay); assay type: biochemical; details: read-out: IC50
T1 construct: purchased CP Lot; 20200225001
Method in brief: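 Human recombinant USP7 (0.05 nM final) preincubated with compound, 10-point 3-fold series, 15 min at RT. Reaction started with 190 nM ubiquitin-rhodamine 110. Fluorescence (ex 485/em 535 nm) read kinetically 20 min. Slopes normalized to enzyme+substrate and substrate-only controls; IC50 from curve fit.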

[2] = mouse liver microsomal stability (Microsome Assay Protocol); assay type: in vitro ADME; details: pH 7.4; mouse liver microsomes, NADPH, 37° C.; read-out: MLM t1/2, min
Method: ND refers to not disclosed.
• 1. Buffer A: 1.0 L of 0.1 M monobasic Potassium Phosphate buffer containing 1.0 mM EDTA Buffer B: 1.0 L of 0.1 M Dibasic Potassium Phosphate buffer containing 1.0 mM EDTA • Buffer C: 0.1 M Potassium Phosphate buffer, 1.0 mM EDTA, pH 7.4 by titrating 700 mL of buffer B with buffer A while monitoring with a pH meter. • 2. Reference compound (Ketanserin) and test compounds spiking solution: • 500 μM spiking solution: added 10 μL of 10 mM DMSO stock solution into 190 μL ACN. • 1.5 μM spiking solution in microsomes (0.75 mg/mL): added 1.5 μL of 500 μM spiking solution and 18.75 μL of 20 mg/mL liver microsomes into 479.75 μL of Buffer C on ice. • 3. Prepared NADPH stock solution (6 mM) by dissolving NADPH into buffer C. Dispensed 30 μL of 1.5 μM spiking solution containing 0.75 mg/mL microsomes solution to the assay plates designated for different time points (0-, 5-, 15-, 30-, 45-min) on ice. For 0-min, added 135 μL of ACN containing IS to the wells of 0-min plate and then added 15 μL of NADPH stock solution (6 mM). Pre-incubated all other plates at 37° C. for 5 minutes. Added 15 μL of NADPH stock solution (6 mM) to the plates to start the reaction and timing. At 5-min, 15-min, 30-min, and 45-min, added 135 μL of ACN containing IS to the wells of corresponding plates, respectively, to stop the reaction. After quenching, shook the plates at the vibrator (IKA, MTS 2/4) for 10 min (600 rpm/min) and then centrifuged at 5594 g for 15 min (Thermo Multifuge×3R). Transferred 50 μL of the supernatant from each well into a 96-well sample plate containing 50 μL of ultra pure water (Millipore, ZMQS50F01) for LC/MS analysis.

T1 sequence (Q93009 whole entry): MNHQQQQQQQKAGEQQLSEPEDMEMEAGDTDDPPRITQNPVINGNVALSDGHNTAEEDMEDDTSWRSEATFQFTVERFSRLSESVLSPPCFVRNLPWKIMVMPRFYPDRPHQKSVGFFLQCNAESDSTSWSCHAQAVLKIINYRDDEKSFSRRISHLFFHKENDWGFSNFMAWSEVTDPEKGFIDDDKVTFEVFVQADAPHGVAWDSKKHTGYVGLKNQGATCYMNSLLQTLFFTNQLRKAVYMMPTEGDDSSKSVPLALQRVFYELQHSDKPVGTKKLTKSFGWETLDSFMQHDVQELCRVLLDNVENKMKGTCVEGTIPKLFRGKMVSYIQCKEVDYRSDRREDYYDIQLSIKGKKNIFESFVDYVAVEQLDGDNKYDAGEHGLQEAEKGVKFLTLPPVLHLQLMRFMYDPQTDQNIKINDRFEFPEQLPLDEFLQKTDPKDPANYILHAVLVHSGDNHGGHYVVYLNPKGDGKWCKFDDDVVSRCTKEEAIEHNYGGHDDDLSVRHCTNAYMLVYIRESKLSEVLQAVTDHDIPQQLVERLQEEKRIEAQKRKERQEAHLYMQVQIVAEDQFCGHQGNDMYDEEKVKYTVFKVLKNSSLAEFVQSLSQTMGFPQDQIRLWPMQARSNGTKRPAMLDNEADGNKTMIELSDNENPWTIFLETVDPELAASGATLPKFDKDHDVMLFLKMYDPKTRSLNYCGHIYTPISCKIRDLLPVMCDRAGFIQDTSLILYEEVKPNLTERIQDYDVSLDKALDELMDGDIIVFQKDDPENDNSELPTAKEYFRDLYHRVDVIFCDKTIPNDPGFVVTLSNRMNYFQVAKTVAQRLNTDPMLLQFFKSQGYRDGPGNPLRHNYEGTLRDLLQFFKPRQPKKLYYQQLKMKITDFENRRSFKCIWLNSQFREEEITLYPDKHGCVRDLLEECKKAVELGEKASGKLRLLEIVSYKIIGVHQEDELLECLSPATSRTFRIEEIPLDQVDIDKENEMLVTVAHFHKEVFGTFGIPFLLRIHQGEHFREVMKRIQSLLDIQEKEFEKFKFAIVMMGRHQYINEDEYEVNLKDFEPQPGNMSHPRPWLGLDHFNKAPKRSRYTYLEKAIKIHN

Row | SMILES | IC50 [1] [nM] | half-life at 1 µM [2] [min]
1 | CN(C)CCCOc1ccc2c(=O)n(CC3(O)CCN(C(=O)C(CCNC(=O)c4ccc5c(Cl)c(C(N)=O)cnc5c4)Cc4ccccc4)CC3)cnc2c1 (stereo not drawn) | < 20 | 28.2
2 | Cc1cc(Cl)c2ccc(C(=O)NCCCC(Cc3ccccc3)C(=O)N3CCC(O)(Cn4cnc5cc(NC(=O)CCN(C)C)ccc5c4=O)CC3)cc2n1 (stereo not drawn) [Compound 49, N-(4-benzyl-5-(4-((7-(3-(dimethylamino)propanamido)-4-oxoquinazolin-3(4H)-yl)methyl)-4-hydroxypiperidin-1-yl)-5-oxopentyl)-4-chloro-2-methylquinoline-7-carboxamide] | < 20 | 13.5
3 | CN(C)CCCOc1ccc2c(=O)n(CC3(O)CCN(C(=O)C(Cc4ccccc4)N(C)CCNC(=O)c4ccc5c(Cl)c(C(N)=O)cnc5c4)CC3)cnc2c1 (stereo not drawn) | < 20 | 36.4
4 | CN(C)CCC(=O)Nc1ccc2c(=O)n(CC3(O)CCN(C(=O)C4CN(CCNC(=O)c5ccc6c(Cl)ccnc6c5)CC4Cc4ccccc4)CC3)cnc2c1 (stereo not drawn) [Compound 54] | 20 to 100 | 36.5
5 | Cc1nc2c(=O)n(CC3(O)CCN(C(=O)C4CCN(CCNC(=O)c5ccc6c(Cl)ccnc6c5)CC4c4ccccc4)CC3)cnc2n1-c1ccc(F)cc1 (stereo not drawn) [Compound 110] | 100 to 1000 | 2.21
6 | CN(C)CCC(=O)Nc1ccc2c(=O)n(CC3(O)CCN(C(=O)c4cn(CCNC(=O)c5ccc6c(Cl)ccnc6c5)nc4Cc4ccccc4)CC3)cnc2c1 [Compound 52, N-(2-(3-benzyl-4-(4-((7-(3-(dimethylamino)propanamido)-4-oxoquinazolin-3(4H)-yl)methyl)-4-hydroxypiperidine-1-carbonyl)-1H-pyrazol-1-yl)ethyl)-4-chloroquinoline-7-carboxamide] | 100 to 1000 | 15.1
7 | CN(C)CCCOc1ccc2c(=O)n(CC3(O)CCN(C(=O)[C@H](CCCNC(=O)c4cnc5c(Cl)ccnc5c4)Cc4ccccc4)CC3)cnc2c1 | 100 to 1000 | 44
8 | CN(C)CCCOc1ccc2c(=O)n(CC3(O)CCN(C(=O)[C@H](CCCNC(=O)c4ccc5c(Cl)c(C(=O)N(C)C)cnc5c4)Cc4ccccc4)CC3)cnc2c1 | 100 to 1000 | 33.8
9 | CN1CCN(CCC(=O)Nc2ccc3c(=O)n(CC4(O)CCN(C(=O)C(CCCNC(=O)c5ccc6c(Cl)cc(-c7cnn(CC(F)(F)F)c7)nc6c5)Cc5ccccc5)CC4)cnc3c2)CC1 (stereo not drawn) [Compound 18, N-(4-benzyl-5-(4-hydroxy-4-((7-(3-(4-methylpiperazin-1-yl)propanamido)-4-oxoquinazolin-3(4H)-yl)methyl)piperidin-1-yl)-5-oxopentyl)-4-chloro-2-(1-(2,2,2-trifluoroethyl)-1H-pyrazol-4-yl)quinoline-7-carboxamide] | 20 to 100 | 21.2
10 | Nc1ccc(-n2ncc3c(=O)n(CC4(O)CCN(C(=O)C(CCCNC(=O)c5ccc6c(Cl)ccnc6c5)Cc5ccccc5)CC4)cnc32)cc1 (stereo not drawn) [Compound 7, N-(5-(4-((1-(4-aminophenyl)-4-oxo-1,4-dihydro-5H-pyrazolo[3,4-d]pyrimidin-5-yl)methyl)-4-hydroxypiperidin-1-yl)-4-benzyl-5-oxopentyl)-4-chloroquinoline-7-carboxamide] | < 20 | 4.3
11 | CN1CCN(CC(=O)Nc2ccc3c(=O)n(CC4(O)CCN(C(=O)C(CCCNC(=O)c5ccc6c(Cl)ccnc6c5)Cc5ccccc5)CC4)cnc3c2)CC1 (stereo not drawn) [Compound 29, N-(4-benzyl-5-(4-hydroxy-4-((7-(2-(4-methylpiperazin-1-yl)acetamido)-4-oxoquinazolin-3(4H)-yl)methyl)piperidin-1-yl)-5-oxopentyl)-4-chloroquinoline-7-carboxamide] | 20 to 100 | 16.7
12 | O=C(CCn1ccnc1)Nc1ccc2c(=O)n(CC3(O)CCN(C(=O)C(CCCNC(=O)c4ccc5c(Cl)ccnc5c4)Cc4ccccc4)CC3)cnc2c1 (stereo not drawn) [Compound 63, N-(5-(4-((7-(3-(1H-imidazol-1-yl)propanamido)-4-oxoquinazolin-3(4H)-yl)methyl)-4-hydroxypiperidin-1-yl)-4-benzyl-5-oxopentyl)-4-chloroquinoline-7-carboxamide] | 100 to 1000 | 4.16
13 | CN(C)CCCOc1ccc2c(=O)n(CC3(O)CCN(C(=O)C(CCCNC(=O)c4ccc5c(Cl)c(CO)cnc5c4)Cc4ccccc4)CC3)cnc2c1 (stereo not drawn) | < 20 | 57.6
14 | O=C(NCCCC(Cc1ccccc1)C(=O)N1CCC(O)(Cn2cnc(NCCN3CCCC3)cc2=O)CC1)c1ccc2c(Cl)ccnc2c1 (stereo not drawn) [Compound 11, N-(4-benzyl-5-(4-hydroxy-4-((6-oxo-4-(2-(pyrrolidin-1-yl)ethylamino)pyrimidin-1(6H)-yl)methyl)piperidin-1-yl)-5-oxopentyl)-4-chloroquinoline-7-carboxamide] | 20 to 100 | 12.1
15 | CN(C)CCCOc1ccc2c(=O)n(CC3(O)CCN(C(=O)[C@H](CCCNC(=O)c4ccc5c(Cl)c6c(nc5c4)CC(C)(C)C6)Cc4ccccc4)CC3)cnc2c1 [Compound 121] | < 20 | 6
16 | Cn1nc2c(=O)n(CC3(O)CCN(C(=O)C(CCCNC(=O)c4ccc5c(Cl)ccnc5c4)Cc4ccccc4)CC3)cnc2c1-c1cccc(C#N)c1 (stereo not drawn) [Compound 10, N-(4-benzyl-5-(4-((3-(3-cyanophenyl)-2-methyl-7-oxo-2,7-dihydro-6H-pyrazolo[4,3-d]pyrimidin-6-yl)methyl)-4-hydroxypiperidin-1-yl)-5-oxopentyl)-4-chloroquinoline-7-carboxamide] | 20 to 100 | 1.5
17 | O=C(CCN1CCOCC1)Nc1ccc2c(=O)n(CC3(O)CCN(C(=O)C(CCCNC(=O)c4ccc5c(Cl)ccnc5c4)Cc4ccccc4)CC3)cnc2c1 (stereo not drawn) [Compound 60, N-(4-benzyl-5-(4-hydroxy-4-((7-(3-morpholinopropanamido)-4-oxoquinazolin-3(4H)-yl)methyl)piperidin-1-yl)-5-oxopentyl)-4-chloroquinoline-7-carboxamide] | 20 to 100 | 2.71

The remaining lines, values ahead:

Row | IC50 [1] [nM] | half-life at 1 µM [2] [min] | SMILES
18 | 20 to 100 | 10.3 | CNc1cc(Cl)nc2cc(C(=O)NCCCC(Cc3ccccc3)C(=O)N3CCC(O)(Cn4cnc5cc(NC(=O)CCN(C)C)ccc5c4=O)CC3)ccc12 (stereo not drawn) [Compound 70]
19 | 20 to 100 | 12.4 | CN(C)CCC(=O)Nc1ccc2c(=O)n(CC3(O)CCN(C(=O)C(CCCNC(=O)c4ccc5c(Cl)ccnc5n4)Cc4ccccc4)CC3)cnc2c1 (stereo not drawn) [Compound 47, N-(4-benzyl-5-(4-((7-(3-(dimethylamino)propanamido)-4-oxoquinazolin-3(4H)-yl)methyl)-4-hydroxypiperidin-1-yl)-5-oxopentyl)-5-chloro-1,8-naphthyridine-2-carboxamide]
20 | 100 to 1000 | 29.5 | CN(C)CCC(=O)Nc1ccc2c(=O)n(CC3(O)CCN(C(=O)C(Cc4ccccc4)c4cccc(NC(=O)c5ccc6c(Cl)ccnc6c5)c4)CC3)cnc2c1 (stereo not drawn) [Compound 72]
21 | 100 to 1000 | 12.8 | CN(C)CCC(=O)Nc1ccc2c(=O)n(CC3(O)CCN(C(=O)C(CCCNC(=O)c4ccc5c(Cl)cc(O)nc5c4)Cc4ccccc4)CC3)cnc2c1 (stereo not drawn) [Compound 65]
22 | 20 to 100 | 3.34 | CN(C)CCC(=O)Nc1ccc2c(=O)n(CC3(O)CCN(C(=O)C(CCCNC(=O)c4ccc5c(Cl)c6c(nc5c4)COCC6)Cc4ccccc4)CC3)cnc2c1 (stereo not drawn) [Compound 89]
23 | < 20 | 3.04 | CC(C)c1cnc2cc(C(=O)NCCC[C@H](Cc3ccccc3)C(=O)N3CCC(O)(Cn4cnc5cc(NC(=O)CCN(C)C)ccc5c4=O)CC3)ccc2c1Cl [Compound 119]
24 | 20 to 100 | 46.5 | CN(C)CCCOc1ccc2c(=O)n(CC3(O)CCN(C(=O)C(Cc4ccccc4)N(C)CCNC(=O)c4ccc5c(Cl)c(C(=O)NC6CC6)cnc5c4)CC3)cnc2c1 (stereo not drawn)
25 | 20 to 100 | 7.27 | CC(c1ccccc1)C(CCCNC(=O)c1ccc2c(Cl)cc(C3CC3)nc2c1)C(=O)N1CCC(O)(Cn2cnc3cc(OCCCN(C)C)ccc3c2=O)CC1 (stereo not drawn)
26 | < 20 | 62.4 | CN(C)CCCOc1ccc2c(=O)n(CC3(O)CCN(C(=O)[C@@H](CCCNC(=O)c4ccc5c(Cl)c(C(=O)NC6CC6)cnc5c4)Cc4ccccc4)CC3)cnc2c1
27 | < 20 | 30.2 | CN(C)CCCOc1ccc2c(=O)n(CC3(O)CCN(C(=O)[C@@H](CCCNC(=O)c4ccc5c(Cl)c(C(N)=O)cnc5c4)Cc4ccccc4)CC3)cnc2c1
